Entries after “also recorded” stand apart in the source; their conditions may differ.
How the values were obtained:
[1] = test system: pancreatic cancer cell lines; assay: Gel indentation assay of pancreatic cancer cell lines on PAM gel after Taxol treatment; type: cell-based, human; details: Taxol 25 μM for 1-2 hr, PAM gel with Young's modulus 2.4 kPa, versus untreated cells
Text: (§1) The inventors used various commercially- or otherwise-available, human, epithelial breast and pancreatic cancer and benign cell lines (all from ATCC, Manassas, Va.). For breast cancer cells, the inventors used three cell lines: high metastatic potential (MP, MDA-MB-231) and low MP (MDA-MB-468) breast cancer cells that had been collected from lung metastases, and benign fibrocystic cells (MCF-10A) as control. In addition, the inventors used a high MP breast cancer LM2-4 cell-line that was developed by collecting twice metastasized cells from the human MDA-MB-231 cell line after being seeded in mice. […]
(§2) The inventors seeded 3×10^5 cells on each gel within the respective media, resulting in an average of 25±5 cells per field-of-view (area of 0.016 mm^2). […] The focal depth of each image was recorded independently during the experiment, following manual focusing, using an automated, computer-controlled microscope stage. […]
(§3) At each measurement time-point, locations on the gel were randomly chosen and at least 3 images were taken: (i) a DIC image of the cells on the gel, (ii) a fluorescence image of the particles embedded at the focal plane of the gel surface, and (iii) a series of fluorescence images at the lowest focal depth where particles were observed, to identify each indenting cells' depth. […]

[2] = test system: breast cancer cell lines; assay: Gel indentation assay of breast cancer cell lines on PAM gel after Taxol treatment; type: cell-based, human; details: Taxol 25 μM for 1-2 hr, PAM gel with Young's modulus 2.4 kPa, versus untreated cells
Text: as §1, §2, §3

CC(=O)O[C@H]1C(=O)[C@@]2(C)[C@H]([C@H](OC(=O)c3ccccc3)[C@]3(O)C[C@H](OC(=O)[C@H](O)[C@@H](NC(=O)c4ccccc4)c4ccccc4)C(C)=C1C3(C)C)[C@]1(OC(C)=O)CO[C@@H]1C[C@@H]2O [Taxol, Paclitaxel]
reduction; also recorded: reduced: attained indentation depths [1] | percentage of indenting cells [1] | attained indentation depths [2] | percentage of indenting cells [2]
